Results as given in publication PMC5239439, “Virtual screening, optimization, and identification of a novel specific PTP-MEG2 Inhibitor with potential therapy for T2DM” (Oncotarget, 2016).
Where two headings read alike, the source gives them in different places.

What was measured:
Format in all cases: biochemical
[1] = molecular target: T1, PTP1B (Homo sapiens, UniProt P18031); assay: Enzymatic assay with pNPP as substrate, PTP1B; conditions: pH 6.0, 37°C 30 min
T1 construct: host or cells: E. coli
T1 sequence (P18031 1-435): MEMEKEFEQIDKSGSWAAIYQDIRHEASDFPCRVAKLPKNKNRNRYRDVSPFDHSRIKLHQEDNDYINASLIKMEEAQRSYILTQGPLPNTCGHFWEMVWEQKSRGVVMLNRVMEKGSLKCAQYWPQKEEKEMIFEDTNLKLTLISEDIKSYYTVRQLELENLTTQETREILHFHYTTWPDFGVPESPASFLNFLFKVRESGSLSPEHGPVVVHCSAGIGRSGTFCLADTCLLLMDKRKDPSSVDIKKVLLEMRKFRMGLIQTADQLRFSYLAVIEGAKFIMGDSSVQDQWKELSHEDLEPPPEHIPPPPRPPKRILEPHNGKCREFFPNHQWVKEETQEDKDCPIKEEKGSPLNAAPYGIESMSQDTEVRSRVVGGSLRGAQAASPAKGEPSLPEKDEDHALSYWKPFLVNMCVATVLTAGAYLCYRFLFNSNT
Procedure: (§1) Briefly, pNPP was hydrolyzed by PTPs to give para-nitrophenol. Para-nitrophenol converts into para-nitrophenolate (pNP), measured with a spectrophotometer after stopping solution was added. The regents and chemicals used in this assay are as follows: Ni-NTA labeled human recombinant PTPs expressed in E coli; de-phosphorylation assay buffer (50 mM citrate (pH 6.0), 0.1 M NaCl, 1 mM EDTA and 1 mM dithiothreitol (DTT)); substrate (2 mM pNPP) in assay buffer; stopping solution (0.2 M sodium hydroxide). PTPs and test-compounds with geometrically increasing concentrations were mixed in 50 μL buffer in each well of a 96-well plate. An equivalent volume of buffer without PTPs was used as blank control. After pre-incubation for 15 min at room temperature, the substrate (50 μL) was added into each well and incubated at 37°C for 30 min. Stopping buffer was poured into each well on ice and the OD value was read at 405 nm against blank.

[2] = molecular target: T2, TCPTP (Homo sapiens, UniProt P17706); assay: Enzymatic assay with pNPP as substrate, TCPTP
T2 construct: host or cells: E. coli
T2 sequence (P17706 1-415): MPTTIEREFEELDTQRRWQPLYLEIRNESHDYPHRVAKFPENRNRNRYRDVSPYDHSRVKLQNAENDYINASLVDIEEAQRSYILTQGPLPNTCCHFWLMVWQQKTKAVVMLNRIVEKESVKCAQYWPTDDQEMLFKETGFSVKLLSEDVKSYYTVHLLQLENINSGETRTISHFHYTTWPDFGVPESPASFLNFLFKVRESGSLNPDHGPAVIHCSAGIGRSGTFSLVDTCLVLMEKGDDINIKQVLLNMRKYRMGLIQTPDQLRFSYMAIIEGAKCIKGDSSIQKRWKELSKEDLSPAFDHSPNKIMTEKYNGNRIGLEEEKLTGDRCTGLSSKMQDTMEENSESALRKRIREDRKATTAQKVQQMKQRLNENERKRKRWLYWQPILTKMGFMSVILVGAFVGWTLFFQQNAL
Procedure: as §1

[3] = molecular target: T3, PTP-MEG2 (Homo sapiens, UniProt P43378); assay: Enzymatic assay with pNPP as substrate, PTP-MEG2; conditions: pH 6.0, 37°C 30 min
T3 construct: host or cells: E. coli
T3 sequence (P43378 1-593): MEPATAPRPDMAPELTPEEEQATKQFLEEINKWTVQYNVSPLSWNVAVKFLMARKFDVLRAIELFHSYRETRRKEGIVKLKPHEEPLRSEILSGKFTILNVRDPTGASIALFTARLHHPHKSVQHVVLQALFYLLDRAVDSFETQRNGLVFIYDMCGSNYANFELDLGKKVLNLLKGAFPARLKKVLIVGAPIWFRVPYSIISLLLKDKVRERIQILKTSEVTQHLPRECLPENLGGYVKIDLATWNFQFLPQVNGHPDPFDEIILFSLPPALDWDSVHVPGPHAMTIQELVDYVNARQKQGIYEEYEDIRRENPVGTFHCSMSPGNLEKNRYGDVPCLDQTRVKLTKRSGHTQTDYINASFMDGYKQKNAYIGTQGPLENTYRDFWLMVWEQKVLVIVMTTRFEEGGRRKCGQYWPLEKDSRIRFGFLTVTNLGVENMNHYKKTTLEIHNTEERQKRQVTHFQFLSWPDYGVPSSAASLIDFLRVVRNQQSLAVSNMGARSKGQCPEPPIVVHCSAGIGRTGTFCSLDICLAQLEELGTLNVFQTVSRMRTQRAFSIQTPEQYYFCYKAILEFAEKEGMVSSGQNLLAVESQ
Procedure: as §1

Row | Compound | IC50 [1] | IC50 ([2]; pNPP substrate, pH 6.0, 37°C 30 min, read-out: IC50 TCPTP) | IC50 [3] | IC50 [2]
1 | O=C(CCCSc1nc2ccccc2s1)Nc1cccc2ccccc12 [Compound 4b, 4-(benzo[d]thiazol-2-ylthio)-N-(naphthalen-1-yl)butanamide] | > 25 µM | > 25 µM | 4.3 µM | 
2 | O=C(CSc1nc2ccccc2s1)Nc1cccc2ccccc12 [Compound 4a, 2-(benzo[d]thiazol-2-ylthio)-N-(naphthalen-1-yl)acetamide] | > 25 µM |  | 3.2 µM | > 25 µM
